Measured values taken from ChEMBL document CHEMBL1146435, “Anserinones A and B: new antifungal and antibacterial benzoquinones from the coprophilous fungus Podospora anserina” (1997).
Calls of active or inactive are those of the source. The calls are words filed in the database; no cut-off is given here.

Columns and labels:
[1] = tested on: Bacillus subtilis; experiment: Antimicrobial activity against Bacillus subtilis ATCC 6051 at 200 ug/disk; format: functional; details: read-out: IZ
[2] = tested on: Sordaria fimicola; experiment: Antimicrobial activity against Sordaria fimicola assessed as reduction in radial growth rate at 200 ug/disk by inoculation disk assay; format: functional; set-up: scale not given: the % may be the effect or the level left
[3] = tested on: Candida albicans; experiment: Antimicrobial activity against Candida albicans ATCC 90029 at 200 ug/disk; format: functional, organism-based
[4] = tested on: Ascobolus; experiment: Antimicrobial activity against Ascobolus furfuraceus assessed as reduction in radial growth rate at 200 ug/disk by inoculation disk assay; format: functional; set-up: scale not given: the % may be the effect or the level left
[5] = tested on: Staphylococcus aureus; experiment: Antimicrobial activity against Staphylococcus aureus ATCC 29213 at 200 ug/disk; format: functional; details: read-out: IZ
[6] = Cytotoxicity against human NCI60 cells; format: functional

| Compound | zone of inhibition at 200 µg/disc [1] | Activity [2] | Activity [3] | Activity [4] | zone of inhibition at 200 µg/disc [5] | GI50 [6] |
| --- | --- | --- | --- | --- | --- | --- |
| COC1=CC(=O)C(C)=C(C[C@H](C)O)C1=O [ANSERINONE B] | 40 mm | 50% | inactive | 37% | 40 mm | 21 µM |
| COC1=CC(=O)C(C)=C(CC(C)=O)C1=O [ANSERINONE A] | 40 mm | 60% | inactive | 100% | 40 mm | 9.1 µM |
